Three compounds from US4622244A, “Process for preparation of microcapsules” (The Washington University, priority 1984, dated 1986) can be followed below.

Each structure is given as a SMILES string. In brackets after ≈: the same amount, converted by molar mass. Read-outs that look alike come from different tables or passages of the source.

A short description of data set [1]: In vitro release/dissolution by end-over-end tumbling in phosphate buffer at 37° C. The data set is classed as physicochemical.
Data set [2] in a line: Solubility of cyclazocine in solvents (equilibration, solids content after solvent evaporation). It is filed as physicochemical. The protocol:
For example, taking cyclazocine as the solid, injectable drug material, Table I summarizes the solubility data obtained for this drug in a number of solvents.
After equilibration (20-30 min), one ml. of solution was transferred to a tared weighing dish and the solids content determined by solvent evaporation.
In particular, the aromatic solvents have little tendency to dissolve it at room temperature.

Data set [3] can be described thus: Mouse tail-flick test, morphine challenge. It is filed as in vivo. The method, then: Microcapsules (177-295 microns in size) so prepared were evaluated by the mouse tail-flick test procedure. Mice (groups of 6) were the test animals. The morphine challenge dose was 10 mg./kg. mouse; test animal response was measured 20 min. after morphine injection. As will be seen, the microcapsules caused more than 50% antagonism 28 days after injection both in the tests in which peanut oil was used as the suspending medium and in the tests where peanut oil plus aluminum monostearate was used as the suspending medium.
*All injections (1 cc/100 g mouse) given through 18 gauge needle; Morphin
challenge dose: 10 mg/kg mouse; Capsule size: 177-295μ; Active content
of capsules initially: 67 wt. %.
Similar studies were run with microcapsules (105 to 177 microns in size) of naltrexone free base (NFB) prepared in the same manner as the naltrexone pamoate microcapsules.
challenge dose: 10 mg/kg mouse; Capsule size: 105-177μ; Active content
(Hot-plate and tail-flick tests time the reaction to a heat stimulus.)

A word on the solubility: it is how much of the substance goes into solution per volume. Turning to `C[C@H]1[C@H]2Cc3ccc(O)cc3[C@]1(C)CCN2CC1CC1` [cyclazocine, 3-(cyclopropylmethyl)-1,2,3,4,-5,6-hexahydro-6,11-dimethyl-2,6-methano-3-benzazocin-8-ol], the “Complete dissolution time of unencapsulated drug” value in data set [1] (buffer pH 7.4) was not above 15 min; in data set [1] (same buffer, pH 7.0), not above 15 min. The solubility came out at 4540 µg/mL (≈ 16.7 mM) in data set [2] (25 acetone/75 ethanol (v/v), organic solvent or mixture, 25 acetone/75 ethanol (V/V), 25° C., read-out: Solubility); 4700 µg/mL (≈ 17.3 mM) in data set [2] (50 acetone/50 ethanol (v/v), organic solvent or mixture, 50 acetone/50 ethanol (V/V), 25° C., read-out: Solubility); 4740 µg/mL (≈ 17.5 mM) in data set [2] (75 acetone/25 ethanol (v/v), organic solvent or mixture, 75 acetone/25 ethanol (V/V), 25° C., read-out: Solubility); 5100 µg/mL (≈ 18.8 mM) in data set [2] (acetone, organic solvent or mixture, acetone, 25° C., read-out: Solubility); 1400 µg/mL (≈ 5.16 mM) in data set [2] (benzene, organic solvent or mixture, benzene, 25° C., read-out: Solubility); 2400 µg/mL (≈ 8.84 mM) in data set [2] (benzene, organic solvent or mixture, benzene, 50° C., read-out: Solubility). In addition, the solubility in data set [2] (chloroform, organic solvent or mixture, chloroform, 25° C., read-out: Solubility) is 7600 µg/mL (≈ 28 mM); in data set [2] (cyclohexane, 80° C.) it was “Insoluble”; in data set [2] (decahydronaphthalene, organic solvent or mixture, decahydronaphthalene, 25° C., read-out: Solubility) it was 1700 µg/mL (≈ 6.26 mM); in data set [2] (decahydronaphthalene, organic solvent or mixture, decahydronaphthalene, 130° C., read-out: Solubility) it was 3400 µg/mL (≈ 12.5 mM); in data set [2] (ethanol, organic solvent or mixture, ethanol, 25° C., read-out: Solubility), 6640 µg/mL (≈ 24.5 mM); in data set [2] (ethanol, organic solvent or mixture, ethanol, 73° C., read-out: Solubility), 52000 µg/mL (≈ 192 mM). Also, the solubility was 2600 µg/mL (≈ 9.58 mM) in data set [2] (ethyl acetate, organic solvent or mixture, ethyl acetate, 4° C., read-out: Solubility); 6300 µg/mL (≈ 23.2 mM) in data set [2] (ethyl acetate, organic solvent or mixture, ethyl acetate, 25° C., read-out: Solubility); 45000 µg/mL (≈ 166 mM) in data set [2] (ethyl acetate, organic solvent or mixture, ethyl acetate, 77° C., read-out: Solubility); 26800 µg/mL (≈ 98.7 mM) in data set [2] (isopropanol, organic solvent or mixture, isopropanol, 25° C., read-out: Solubility); 26800 µg/mL (≈ 98.7 mM) in data set [2] (isopropanol, organic solvent or mixture, isopropanol, 80° C., read-out: Solubility); 18400 µg/mL (≈ 67.8 mM) in data set [2] (methanol, organic solvent or mixture, methanol, 25° C., read-out: Solubility). The solubility in data set [2] (methanol, organic solvent or mixture, methanol, 63° C., read-out: Solubility) is 33200 µg/mL (≈ 122 mM); in data set [2] (methyl ethyl ketone, organic solvent or mixture, methyl ethyl ketone, 4° C., read-out: Solubility), 9100 µg/mL (≈ 33.5 mM); in data set [2] (methyl ethyl ketone, organic solvent or mixture, methyl ethyl ketone, 25° C., read-out: Solubility), 16000 µg/mL (≈ 59 mM); in data set [2] (methyl ethyl ketone, organic solvent or mixture, methyl ethyl ketone, 79° C., read-out: Solubility) it was 59800 µg/mL (≈ 220 mM); in data set [2] (n-butanol, organic solvent or mixture, n-butanol, 4° C., read-out: Solubility), 4500 µg/mL (≈ 16.6 mM); in data set [2] (n-butanol, organic solvent or mixture, n-butanol, 25° C., read-out: Solubility), 15000 µg/mL (≈ 55.3 mM). For the same compound, the solubility was 215000 µg/mL (≈ 792 mM) in data set [2] (n-butanol, organic solvent or mixture, n-butanol, 117° C., read-out: Solubility); 1000 µg/mL (≈ 3.68 mM) in data set [2] (toluene, organic solvent or mixture, toluene, 25° C., read-out: Solubility); 1500 µg/mL (≈ 5.53 mM) in data set [2] (toluene, organic solvent or mixture, toluene, 35° C., read-out: Solubility); 4000 µg/mL (≈ 14.7 mM) in data set [2] (toluene, organic solvent or mixture, toluene, 50° C., read-out: Solubility); 15000 µg/mL (≈ 55.3 mM) in data set [2] (toluene, organic solvent or mixture, toluene, 100° C., read-out: Solubility); 1200 µg/mL (≈ 4.42 mM) in data set [2] (xylene, organic solvent or mixture, xylene, 25° C., read-out: Solubility). In addition, the solubility in data set [2] (xylene, organic solvent or mixture, xylene, 50° C., read-out: Solubility) was 1800 µg/mL (≈ 6.63 mM); in data set [2] (xylene, organic solvent or mixture, xylene, 90° C., read-out: Solubility), 17500 µg/mL (≈ 64.5 mM). Besides, the “Solubility (in words)” value in data set [2] (range of solvents, room temperature) is recorded as “relatively low solubility”.

Turning to `O=C1CC[C@@]2(O)[C@H]3Cc4ccc(O)c5c4[C@@]2(CCN3CC2CC2)[C@H]1O5` [NFB], the “% Antagonism” value in data set [3] (7 days, 40 mg unencapsulated NFB/kg mouse, peanut oil) stood at 80.0%; in data set [3] (7 days, 40 mg unencapsulated NFB/kg mouse, peanut oil + 2 wt. % AIMS) it was 54.1%; in data set [3] (10 days, 40 mg unencapsulated NFB/kg mouse, peanut oil), 39.7%; in data set [3] (10 days, 40 mg unencapsulated NFB/kg mouse, peanut oil + 2 wt. % AIMS), 69.5%; in data set [3] (14 days, 40 mg unencapsulated NFB/kg mouse, peanut oil), 21.8%; in data set [3] (14 days, 40 mg unencapsulated NFB/kg mouse, peanut oil + 2 wt. % AIMS), 48.0%. The “% Antagonism” value is on record as 8.1% in data set [3] (21 days, 40 mg unencapsulated NFB/kg mouse, peanut oil) and 15.2% in data set [3] (21 days, 40 mg unencapsulated NFB/kg mouse, peanut oil + 2 wt. % AIMS).

Consider `O=C1CC[C@@]2(O)[C@H]3Cc4ccc(O)c5c4[C@@]2(CCN3CC2CC2)[C@H]1O5` [NP], for which the “% Antagonism” value in data set [3] (7 days, 40 mg unencapsulated NP/kg mouse, peanut oil) was found to be 66.1%; in data set [3] (7 days, 40 mg unencapsulated NP/kg mouse, peanut oil + 2 wt. % AIMS) it was 88.3%; in data set [3] (14 days, 40 mg unencapsulated NP/kg mouse, peanut oil), 59.1%; in data set [3] (14 days, 40 mg unencapsulated NP/kg mouse, peanut oil + 2 wt. % AIMS) it was 52.9%; in data set [3] (21 days, 40 mg unencapsulated NP/kg mouse, peanut oil) it was 12.9%; in data set [3] (21 days, 40 mg unencapsulated NP/kg mouse, peanut oil + 2 wt. % AIMS), 11.2%. Further, the “% Antagonism” value in data set [3] (28 days, 40 mg unencapsulated NP/kg mouse, peanut oil) stood at 13.9%; in data set [3] (28 days, 40 mg unencapsulated NP/kg mouse, peanut oil + 2 wt. % AIMS), 18.4%.
